Patent publication US8748566B2, “Pharmacologically active antiviral peptides and methods of use” (priority 2000, dated 2014)

Tests used:
[1] = test system: HSV-1 KOS; experiment: Yield reduction assay (virus production in infected Vero cells); type: cell-based; settings: added one hour prior to infection; EB statement for concentrations exceeding 10 μM (FIG. 3)
Experimental: Three days post-infection, Vero cell cultures in microtiter plates were frozen (−80° C.) and thawed (37° C.) three times. Cells were suspended by repeated pipetting and microtiter plates were spun for 10 min at 700×g in a Beckman model TJ-6 tabletop centrifuge. The virus-containing supernates were serially diluted in regular medium and titered on Vero cells. Plaques were counted after staining the monolayers with crystal violet as taught by Grau et al., Invest. Ophthalmol. Vis. Sci. 30:2474 (1989).
Vero cell cultures as prepared in Example 1 were infected with HSV-1 and assayed for virus production as described in Example 1. The antiviral activity of an antiviral peptide according to the present invention EB (SEQ ID NO:1) was compared to the antiviral activity of the current HSV antiviral nucleoside standard, acyclovir. The two peptides were added to the Vero cells one hour prior to infection with HSV.

[2] = test system: HSV-1 KOS virions; experiment: Electron microscopy of peptide-treated virions (aggregation); settings: 25 μM peptide, purified virus particles
Experimental: Purified HSV-1 KOS virions (2.5×10^7 pfu/ml) according to Visalli et al., Virus Res. 29:167 (1993) were treated with 25 μM antiviral peptide SEQ ID NO:1 or the control peptide EBX (SEQ ID NO: 17) in 40 μl serum-free DMEM buffered with 25 mM Hepes (pH 7.4) for 5 to 60 min at 4 or 23° C. Aliquots (10 μl) were adsorbed to pioloform poly-L-lysine-coated grids for 5 min at 23° C. Grids were rinsed with PBS, stained with 2% phosphotungstic acid (PTA) in water adjusted to pH ˜6 and air dried. Alternatively, virus was pre-adsorbed to grids and treated with peptides thereafter. A total of 4×10^9 pfu/ml of purified HSV-1 KOS in 5 μl PBS was applied to the coated grids for 5 min at 23° C., and the grids were rinsed once with serum-free DMEM buffered with 25 mM Hepes (pH 7.4) and treated with 15 μl of 5 mM EB or EBX in the same medium for 30 min at 37° C. The pH of highly concentrated solutions of antiviral peptide SEQ ID NO:1 and EBX was re-adjusted to 7.4 with NaOH prior to use. To prevent evaporation of the peptide-containing solutions, each grid was held in a Hiraoka flexible staining plate and covered with miniature bell jar made from an 0.5 ml polypropylene micro-centrifuge tubes, small enough for the 15 μl to fill half of the bell jar facing the coated surface of the grid. The entire assembly was then incubated in a moist chamber for 30 min at 37° C. […]

Substance: H-RRKKAAVALLPAVLLALLAP-OH [EB]
- antiviral activity, EB compared with acyclovir [1]: greatest antiviral activity
- state of virus particles by electron microscopy [2]: nearly all of the particles were seen in relatively few large aggregates
